Laboratory results reported in patent US12576253B2, “Drug delivery device with intravesical tolerability” (priority 2009, dated 2026).

Settings: two six-day rabbits (4 mg device), spinal cord puncture at L7 just prior to euthanasia

- lidocaine in cerebrospinal fluid: not detected
SMILES: CCN(CC)CC(=O)Nc1c(C)cccc1C [lidocaine]
